The nature of the series: Chemical stability in aqueous buffer at PH 7.3 by spontaneous hydrolysis. Type of series: physicochemical.
The compound `O=C(c1ccccc1)n1cc([N+](=O)[O-])cn1` gave a half-life of 0.04 h.

`Cc1nn(C(=O)c2ccc(Cl)c([N+](=O)[O-])c2)c(C)c1Cl`: the half-life is 2.2 h.

For the compound `CC(=O)Nc1ccc(C(=O)n2ccc(C)n2)cc1`, the half-life is 10 h.

With `Cc1cccc(C(=O)n2cc(Br)cn2)c1`, the half-life was 5.1 h.

As to `Cc1cc(C)n(C(=O)c2ccc(Cl)c([N+](=O)[O-])c2)n1`, the half-life is 5.6 h.

In turn, `CC(C)(C)c1ccc(C(=O)n2cc(Cl)cn2)cc1` gave a half-life of 2.2 h.

Compound `O=C(c1cc(F)ccc1Cl)n1cccn1` gave a half-life of 2.5 h.

`O=C(c1ccccc1Cl)n1cccn1`: the half-life was 1.1 h.

Regarding `Cc1nn(C(=O)c2ccc(Cl)cc2)c(C)c1Cl`, the half-life is 2.6 h.

On to `O=C(c1ccc(F)cc1)n1cc(Cl)cn1`, for which the half-life was 1.6 h.

On to `Cc1ccc(C(=O)c2ccn(C(=O)c3ccc(F)cc3)n2)c(C)c1`, for which the half-life is 0.21 h.

Compound `Cc1cc(C)n(C(=O)c2ccc(C)c(Br)c2)n1` showed a half-life of 25.1 h.

`O=C(c1cc(F)c(F)cc1Cl)n1cc(Br)cn1` had a half-life of 0.73 h.

Compound `O=C(Nc1ccccc1)c1ccn(C(=O)c2ccccc2)n1` had a half-life of 0.51 h.

On to `Cc1ccccc1C(=O)n1cccn1`, for which the half-life is 1.2 h.

In turn, `Cc1ccccc1C(=O)n1cc(Br)cn1` gave a half-life of 6.2 h.

For the compound `Cc1ccc(C(=O)n2ccc([N+](=O)[O-])n2)cc1`, the half-life is 0.1 h.

As for `Cc1nn(C(=O)c2cccc(Br)c2)c(C)c1Br`, the half-life is 3.1 h.

`Cc1nn(C(=O)c2ccc(Cl)cc2Cl)c(C)c1Cl`: the half-life was 7.2 h.

`Cc1ccc(C(=O)n2cc(Br)cn2)cc1` gave a half-life of 2.1 h.

The compound `Cc1cc([N+](=O)[O-])nn1C(=O)c1ccccc1F` had a half-life of 0.16 h.

Compound `O=C(c1ccccc1)n1ccc([N+](=O)[O-])n1` showed a half-life of 0.033 h.

`Cc1ccccc1C(=O)n1cc(Cl)cn1`: the half-life is 4.2 h.

Consider `Cc1nn(C(=O)c2ccccc2Br)c(C)c1Cl`, for which the half-life is 12.5 h.

With `O=C(c1cccc([N+](=O)[O-])c1)n1cc(Cl)cn1`, the half-life is 0.22 h.

`O=C(c1c(F)cccc1F)n1cc(Br)cn1` showed a half-life of 3.1 h.

`Cc1ccccc1C(=O)n1cc([N+](=O)[O-])cn1` gave a half-life of 0.55 h.

Consider `Cc1cc(C)n(C(=O)c2ccc(Cl)c(Cl)c2)n1`, for which the half-life is 10 h.

In turn, `O=C(c1ccc(Cl)c(Cl)c1)n1cccn1` showed a half-life of 1.1 h.

In the case of `Cc1nn(C(=O)c2ccc(Cl)cc2)c(C)c1Br`, the half-life is 2.1 h.

Regarding `O=C(c1ccccc1Cl)n1cc(Cl)cn1`, the half-life is 3 h.

Compound `Cc1nn(C(=O)c2ccccc2F)c(C)c1Cl` had a half-life of 5.3 h.

In turn, `COC(=O)c1ccnn1C(=O)c1ccc(Cl)cc1` gave a half-life of 0.29 h.

`COc1cc(C(=O)n2ccc(C)n2)cc(OC)c1OC` gave a half-life of 4.2 h.

For the origin of these results see ChEMBL document CHEMBL1148811, “N-benzoylpyrazoles are novel small-molecule inhibitors of human neutrophil elastase” (J Med Chem, 2007).
